Assay results published in patent publication US20090149496A1, “INHIBITORS OF THE TASK-1 AND TASK-3 ION CHANNEL” (SANOFI-AVENTIS DEUTSCHLAND GMBH, priority 2006, published 2009).

Tests used:
respiration in rabbits = test: Action on respiration in rabbits (propofol-induced apnea); assay type: in vivo; conditions: rabbit, 10 mg/kg i.v., propofol 10 mg/kg/min, n = 13
Experimental: D) Investigation of the Action on Respiration in Rabbits
An apnea was induced in the rabbit by infusion of the narcotic propofol, 10 mg/kg/min. The vehicle used for the compound of example 1 (R-enantiomer) was DMSO/PEG (0.2 ml/1.8 ml). The time from the start of propofol infusion up to the apnea was recorded.

genioglossus muscle = test: Electromyographic activity of the genioglossus muscle in narcotized rats; assay type: in vivo, rat
Experimental: (§1) E) Investigation of the Effect on the Electromyographic Activity of the Genioglossus Muscle and the Respiratory Minute Volume in Rats
(§2) The compound of example 1 (R-enantiomer) and of example 2 was investigated for electromyographic activity of the genioglossus muscle and for respiration-stimulating effect on male urethane-chloralose-narcotized, vagotomized rats with a weight of from 250 to 300 g. For this purpose, the genioglossus EMG activity was measured by means of EMG electrodes. The respiration-stimulating effect was investigated by measuring the respiratory minute volume by means of a tracheal cannula. For the investigations, the rats were administered intravenously successively with 1, 3 and 10 mg/kg of the compound of example 1 (R-enantiomer) and of example 2, with glycofurol (50%) as the vehicle, at 15 minute intervals. CO2 was used as the positive control for the stimulation of the genioglossus activity and of the respiratory minute volume.

TASK1 (mouse) = molecular target: T1, TASK1 (mouse) (Mus musculus, UniProt O35111); test: Activity on the TASK-1 channel in Xenopus oocytes (two-microelectrode voltage clamp), mouse channel; assay type: cell-based; conditions: mouse TASK-1 expressed in Xenopus oocytes, voltage jumps to 40 mV, pH 7.4, room temperature; read-out: IC50 (μmol) TASK1 (mouse)
T1 construct: expressed in transfected cells; host or cells: Xenopus laevis oocytes injected with in vitro synthesized RNA
Experimental: (§3) A) Determination of the Activity on the TASK-1 Channel in Xenopus Oocytes
(§4) Mouse or human TASK-1 channels were expressed in Xenopus oocytes. For this purpose, oocytes were first isolated from Xenopus levis and defolliculated. Subsequently, TASK-1-encoding RNA synthesized in vitro was injected into these oocytes. After two days of TASK-1 protein expression, TASK-1 currents were measured on the oocytes with the two-microelectrode voltage clamp technique. In this measurement, the TASK-1 channels were generally activated with voltage jumps lasting 250 ms to 40 mV. The bath was flushed with a solution of the following composition: NaCl 96 mM, KCl 2 mM, CaCl2 1.8 mM, MgCl2 1 mM, HEPES 5 mM (titrated to pH 7.4 with NaOH). These experiments were performed at room temperature. For data acquisition and analysis, the following were used: Geneclamp amplifier (Axon Instruments, Foster City, USA) and MacLab D/A converter and software (ADinstruments, Castle Hill, Australia). The inventive substances were tested by adding them to the bath solution in different concentrations. The effects of the substances were calculated as the percentage inhibition of the TASK-1 control current which was obtained when no substance was added to the solution. The data was subsequently fitted to the Hill equation in order to determine the half-maximum inhibitory concentrations (IC50 values) for the particular substances.

TASK1 (human) [1] = molecular target: T2, TASK1 (human) (Homo sapiens, UniProt O14649); test: Activity on the TASK-1 channel in Xenopus oocytes (two-microelectrode voltage clamp), human channel; assay type: cell-based; design: expressed in transfected cells; host or cells: Xenopus laevis oocytes injected with in vitro synthesized RNA; conditions: human TASK-1 expressed in Xenopus oocytes, voltage jumps to 40 mV, pH 7.4, room temperature; read-out: IC50 (μmol) TASK1 (human)
Experimental: as §3, §4

respiration = test: Respiratory minute volume in narcotized rats; assay type: in vivo, rat
Experimental: as §1, §2

human TASK-3 channel = molecular target: T3, human TASK-3 channel (Homo sapiens, UniProt Q9NPC2); test: Activity on the TASK-3 channel by patch-clamp on CHO cells; assay type: cell-based; conditions: whole cell, CHO cells expressing human TASK-3, read-out: IC50 (μmol/l) TASK3 (human)
T3 construct: expressed in transfected cells; host or cells: CHO DHFR-minus cells, clone CHO-244-8-1
Experimental: C) Determination of the Activity on the TASK-3 Channel by Patch-Clamp Investigations
With the aid of the patch-clamp technique, the inhibition of the human TASK-3 current by the example compounds was measured on CHO cells in which the human TASK-3 channel is expressed. To produce the TASK-3 cell line, the human TASK-3 cDNA (Genbank, Accession Number AF248241) was cloned into the eukaryotic expression vector p658, which bears a DHFR (dihydrofolate reductase) resistance gene [reference: Gene 1994 (149), 341-344, 1994]. CHO (Chinese hamster ovary) DHFR-minus cells were transfected with the TASK-3 expression construct using the Fugene reagent (Roche Biochemicals) according to the manufacturer's instructions. […] Resulting cell clones were analyzed for the expression of TASK-3 with the aid of a fluorescence-based activity assay in a FlexStation (Molecular Devices) and with a membrane potention-sensitive dye (Molecular Devices FMP Dye Kit). […] TASK-3-positive cell clones were subsequently analyzed for resulting potassium currents with the patch-clamp technique. […]
To investigate the substances, the cells were introduced into a measurement chamber which is mounted on an inverted microscope. […] The concentration of the half-maximum inhibition of the current (IC50 value) was determined by fitting the curve to the mathematical Hill equation.
In this analysis, the following IC50 values were determined: […]

rats = test: Compatibility in rats; assay type: in vivo, rat; conditions: oral administration of 1000 mg/kg
From the text: F) Investigation of Compatibility in Rats

TASK1 (human) [2] = molecular target: T2, TASK1 (human); test: Activity on the TASK-1 channel with the FLIPR technique on CHO cells; assay type: cell-based; design: expressed in transfected cells; host or cells: CHO cells; conditions: inhibition of human TASK-1 current, 10 μmol/l
From the text: B) Determination of the Activity on the TASK-1 Channel with the FLIPR Technique

T2 sequence (O14649 whole entry): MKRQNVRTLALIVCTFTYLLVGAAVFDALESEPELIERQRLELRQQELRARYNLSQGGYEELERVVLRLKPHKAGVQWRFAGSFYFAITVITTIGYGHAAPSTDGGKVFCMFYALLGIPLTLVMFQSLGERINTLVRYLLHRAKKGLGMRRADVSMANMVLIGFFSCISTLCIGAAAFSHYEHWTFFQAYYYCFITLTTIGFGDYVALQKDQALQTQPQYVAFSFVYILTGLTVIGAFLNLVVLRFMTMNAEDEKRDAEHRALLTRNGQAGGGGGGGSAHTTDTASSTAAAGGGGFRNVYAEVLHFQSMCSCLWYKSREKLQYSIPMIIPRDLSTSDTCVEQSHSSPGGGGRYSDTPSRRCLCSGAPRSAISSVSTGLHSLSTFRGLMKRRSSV
T1 sequence (O35111 whole entry): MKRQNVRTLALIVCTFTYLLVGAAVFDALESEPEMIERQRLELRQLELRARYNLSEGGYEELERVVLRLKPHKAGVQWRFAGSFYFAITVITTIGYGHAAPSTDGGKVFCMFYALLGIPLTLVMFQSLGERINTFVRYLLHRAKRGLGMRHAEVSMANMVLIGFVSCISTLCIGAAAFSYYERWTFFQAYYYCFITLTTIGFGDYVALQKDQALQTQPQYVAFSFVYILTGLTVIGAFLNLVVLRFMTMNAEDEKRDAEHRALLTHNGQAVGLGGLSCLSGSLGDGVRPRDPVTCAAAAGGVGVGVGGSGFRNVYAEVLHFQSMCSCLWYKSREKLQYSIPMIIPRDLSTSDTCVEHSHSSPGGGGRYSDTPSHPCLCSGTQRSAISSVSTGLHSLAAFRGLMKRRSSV
T3 sequence (Q9NPC2 whole entry): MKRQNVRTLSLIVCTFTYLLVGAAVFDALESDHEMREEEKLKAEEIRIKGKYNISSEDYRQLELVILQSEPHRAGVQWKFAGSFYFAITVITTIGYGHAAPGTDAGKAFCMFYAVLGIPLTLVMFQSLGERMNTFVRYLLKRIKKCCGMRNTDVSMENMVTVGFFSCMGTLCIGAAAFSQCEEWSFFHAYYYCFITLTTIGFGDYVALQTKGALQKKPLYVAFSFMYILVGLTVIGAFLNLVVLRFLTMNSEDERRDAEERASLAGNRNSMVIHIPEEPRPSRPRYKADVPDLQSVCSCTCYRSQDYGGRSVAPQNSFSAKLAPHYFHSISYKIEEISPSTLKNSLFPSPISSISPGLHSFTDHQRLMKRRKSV

CCCCS(=O)(=O)Nc1ccccc1C(=O)N[C@H](CC)c1ccc(OC)nc1 [Example 1 (R-enantiomer), 2-(Butyl-1-sulfonylamino)-N-[1(R)-(6-methoxypyridin-3-yl)propyl]benzamide]
Time from the start of propofol infusion up to the apnea (mean) (respiration in rabbits): 5.63 min | EMG activity of the genioglossus muscle (mean) (genioglossus muscle; 1 mg/kg intravenously): 4.45 arbitrary units | EMG activity of the genioglossus muscle (mean) (genioglossus muscle; 3 mg/kg intravenously): 5.59 arbitrary units | EMG activity of the genioglossus muscle (mean) (genioglossus muscle; 10 mg/kg intravenously): 7.18 arbitrary units | Effect on the electromyographic activity of the genioglossus muscle (in words) (genioglossus muscle; summary of tables 2 and 4): stimulate | IC50 (TASK1 (mouse)): 150 nM | IC50 (TASK1 (human) [1]): 100 nM | Respiratory minute volume (mean) (respiration; 1 mg/kg intravenously): 246 mL/min | Respiratory minute volume (mean) (respiration; 3 mg/kg intravenously): 317 mL/min | Respiratory minute volume (mean) (respiration; 10 mg/kg intravenously): 375 mL/min | Effect on the respiratory minute volume (in words) (respiration; summary of tables 3 and 5): stimulate | IC50 (human TASK-3 channel): 1 µmol/L | melting point: 97 °C | Side-effects (rats): no side-effects were observed | inhibition at 10 µM (TASK1 (human) [2]): 81%
